{"source": "patent US10112933B2", "about": "“Methods and compositions for treatment of fibrosis” (Baylor College of Medicine, priority 2013, dated 2018)", "key": {"skin fibrosis": {"system": "skin fibrosis", "test": "Subcutaneous bleomycin mouse model of skin fibrosis", "type": "in vivo", "settings": "intraperitoneal treatment days 14-28 of the 4 week model", "method": "FIG. 20 illustrates an exemplary study design using a subcutaneous (SQ) bleomycin model for skin fibrosis. In a basic model, bleomycin is administered to wild type mice (C57/Bl6) via subcutaneous injection 5 days a week for a total of 4 weeks. PBS is used as a control for the bleomycin. Fibrosis is assessed in the biopsied skin on day 28. Fibrosis is assessed using histology (hematoxylin and eosin stain), where the dermal thickness is quantified as the average linear distance from the dermis-epidermis junction to the subQ muscle layer. Masson's trichrome staining is also performed to stain collagen blue. Immunohistochemistry is performed for alpha-smooth muscle actin, the marker of the myofibroblasts (cell that makes collagen during the process of fibrosis). Future endpoints are assessed including collagen content. To illustrate that STAT3 inhibitor is a useful therapy at least for dermal fibrosis, an example of a STAT3 inhibitor (C188-9) was given via the intraperitoneal route daily, starting in week 3 of the bleomycin model. DMSO was used as a control for the STAT3 inhibitor."}, "[1]": {"system": "alveolar epithelial cells (MLE-12 and primary AEC)", "test": "TGF-beta and IL-6/sIL-6R-alpha induced EMT of alveolar epithelial cells", "type": "cell-based", "method": "(§1) The role of STAT3 in EMT and myofibroblast differentiation was determined by using […]-9 in tissue culture experiments with alveolar epithelial cells (AEC; MLE-12 and primary AEC) and murine lung fibroblasts. […] […]-9 prevented TGF-beta and IL-6/sIL-6R-alpha induced EMT of AEC assessed by Col1a, alpha-SMA, Twist, and Snail mRNA levels and reduced myofibroblast differentiation as assessed by Col1a and alpha-SMA mRNA levels."}, "murine lung fibroblasts": {"system": "murine lung fibroblasts", "test": "Myofibroblast differentiation of lung fibroblasts", "type": "cell-based", "method": "as §1"}}}
{"smiles": "COc1ccc(S(=O)(=O)Nc2cc(-c3c(O)ccc4ccccc34)c(O)c3ccccc23)cc1", "note": "[C188-9, N-(1′,2-dihydroxy-1,2′-binaphthalen-4′-yl)-4-methoxybenzenesulfonamide]", "values": [{"measurement": "bleomycin-induced increase of dermal fibrotic gene expression (Acta2, Col1a1, Col1a2 transcripts), RT-PCR", "setting": "skin fibrosis", "result": "blunted"}, {"measurement": "TGF-beta and IL-6/sIL-6R-alpha induced EMT of AEC (Col1a, alpha-SMA, Twist, Snail mRNA levels)", "setting": "[1]", "result": "prevented"}, {"measurement": "myofibroblast differentiation (Col1a and alpha-SMA mRNA levels)", "setting": "murine lung fibroblasts", "result": "reduced"}]}
